Laboratory results: PubChem BioAssay AID977614 (Broad Institute, 2014)
Calls of active or inactive are those of the source.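 Rule for the calls: active = parasite count per well reduced by over 3 SD from the mean, with host cell number above 80% of untreated; inactive = the rest.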

System: L. donovani amastigotes in THP-1 macrophages, DAPI imaging, 72 h
Test: antileishmanial activity in infected macrophages – imaging, THP-1 host macrophages, single concentration (AID 977614);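 note: signal is the parasite per host cell ratio from DAPI stained kinetoplasts and nuclei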

| Compound | AC50 |
| --- | --- |
| O=C(NC[C@@H]1[C@@H](c2ccccc2)[C@@H](CO)N1C(=O)C1CCC1)NC1CCCC1 | > 10 µM (inactive) |
| O=C(c1ccncc1)N1C[C@@H]2[C@H](c3ccccc31)[C@@H](CO)N2Cc1ccccc1F | > 10 µM (inactive) |
| O=C(NC[C@H]1[C@H](c2ccccc2)[C@H](CO)N1Cc1cccnc1)c1ccccn1 | > 10 µM (inactive) |
| CCCNC(=O)N1C[C@H]2[C@@H](c3ccccc31)[C@H](CO)N2Cc1cccc(OC)c1 | > 10 µM (inactive) |
| CC(C)CNC[C@@H]1[C@@H](c2ccccc2)[C@@H](CO)N1Cc1ccc(F)cc1 | > 10 µM (inactive) |
| COCC(=O)N1C[C@@H]2[C@H](c3ccccc31)[C@@H](CO)N2C(=O)c1ccccc1F | > 10 µM (inactive) |
| COCCN(C[C@@H]1[C@@H](c2ccccc2)[C@@H](CO)N1C(C)=O)C(=O)c1cccnc1 | > 10 µM (inactive) |
| C/C=C/c1ccc([C@@H]2[C@@H](CO)N(C(C)=O)[C@H]2CNC(=O)c2ccccc2)cc1 | > 10 µM (inactive) |
| COCC(=O)N(C)C[C@H]1[C@@H](c2ccccc2)[C@H](CO)N1C(=O)Cc1ccncc1 | > 10 µM (inactive) |
| CCN(C[C@H]1[C@H](c2ccc(-c3cccnc3)cc2)[C@H](CO)N1C(C)=O)C(C)=O | > 10 µM (inactive) |
| C[C@H]1CN([C@@H](C)CO)C(=O)CCCn2cc(nn2)CO[C@H]1CN(C)C(=O)Oc1ccc2ccccc2c1 | > 10 µM (inactive) |
| O=C(Nc1ccc(Cl)cc1)N1C[C@H]2[C@@H](c3ccccc31)[C@H](CO)N2CC1CCCCC1 | > 10 µM (inactive) |
| O=C(C1CCOCC1)N1C[C@H]2[C@@H](c3ccccc31)[C@@H](CO)N2C(=O)Cc1ccccn1 | > 10 µM (inactive) |
| C[C@H](CO)N1C[C@H](C)[C@@H](CN(C)C(=O)Oc2ccc3ccccc3c2)OCc2cn(nn2)CCCC1=O | > 10 µM (inactive) |
| CCN(C[C@H]1[C@H](c2ccc(C3=CCCCC3)cc2)[C@H](CO)N1CC1CC1)C(C)=O | > 10 µM (inactive) |
| C[C@@H]1CN([C@H](C)CO)C(=O)CCCn2nncc2CO[C@H]1CN(C)Cc1ccc(C(=O)Nc2ccccc2N)cc1 | > 10 µM (inactive) |
| O=C(CC(F)(F)F)N1C[C@@H]2[C@H](c3ccccc31)[C@H](CO)N2Cc1cccnc1 | > 10 µM (inactive) |
| CN(C[C@H]1N[C@H](CO)[C@@H]1c1ccc(-c2cccnc2)cc1)C(=O)NC1CCCC1 | > 10 µM (inactive) |
| C/C=C/c1ccc([C@@H]2[C@@H](CN(CC)C(=O)CN(C)C)N(C(C)=O)[C@H]2CO)cc1 | > 10 µM (inactive) |
| COc1ccccc1-c1ccc([C@H]2[C@@H](CO)N(C(C)=O)[C@@H]2CN(C)C(C)=O)cc1 | > 10 µM (inactive) |
| C[C@@H]1CN([C@H](C)CO)C(=O)CCCn2nncc2CO[C@@H]1CN(C)C(=O)c1cc(-c2ccccc2)on1 | > 10 µM (inactive) |
| COCC(=O)N1[C@@H]2CN(C(=O)Nc3ccccc3Cl)c3ccccc3[C@@H]2[C@@H]1CO | > 10 µM (inactive) |
| C[C@@H]1CN([C@H](C)CO)C(=O)CCCn2cc(nn2)CO[C@H]1CN(C)C(=O)Nc1ccc2c(c1)OCO2 | > 10 µM (inactive) |
| C/C=C/c1ccc([C@@H]2[C@@H](CO)N[C@@H]2CN(CC(C)C)C(=O)c2ccccn2)cc1 | > 10 µM (inactive) |
| CCN(C[C@@H]1[C@@H](c2ccc(-c3cccnc3)cc2)[C@@H](CO)N1C(C)=O)C(C)=O | > 10 µM (inactive) |

| Compound | AC50 |
| --- | --- |
| CN1C[C@H]2[C@@H](c3ccccc31)[C@@H](CO)N2S(=O)(=O)c1ccccc1 | > 10 µM (inactive) |
| C[C@@H]1CN([C@H](C)CO)C(=O)CCCn2nncc2CO[C@H]1CN(C)S(=O)(=O)c1ccc(Oc2ccccc2)nc1 | > 10 µM (inactive) |
| Cc1cccc(S(=O)(=O)N2C[C@H]3[C@@H](c4ccccc42)[C@@H](CO)N3C(=O)c2ccccc2)c1 | > 10 µM (inactive) |
| O=C(Nc1ccc(Cl)cc1)N1C[C@@H]2[C@H](c3ccccc31)[C@H](CO)N2CC1CCCCC1 | > 10 µM (inactive) |
| C[C@@H]1CN([C@@H](C)CO)C(=O)CCCn2nncc2CO[C@@H]1CN(C)S(=O)(=O)c1ccc2c(c1)OCCCO2 | > 10 µM (inactive) |
| C[C@H]1CN([C@@H](C)CO)C(=O)CCCn2nncc2CO[C@H]1CN(C)C(=O)Nc1ccnc(N2CCOCC2)c1 | > 10 µM (inactive) |
| CC(=O)N1[C@H](CN(CC2CCC2)C(=O)CN(C)C)[C@@H](c2ccccc2)[C@@H]1CO | > 10 µM (inactive) |
| CC(=O)N1[C@H](CO)[C@H](c2ccccc2)[C@H]1CN(C(=O)c1ccccc1F)C(C)C | > 10 µM (inactive) |
| C[C@@H]1CN([C@@H](C)CO)C(=O)CCCn2nncc2CO[C@H]1CN(C)Cc1ccc(C(=O)Nc2ccccc2N)cc1 | > 10 µM (inactive) |
| C[C@@H]1CN([C@H](C)CO)C(=O)CCCn2cc(nn2)CO[C@H]1CN(C)C(=O)c1ccc(N2CCN(C)CC2)cc1 | > 10 µM (inactive) |
| CCC(=O)N(CC(C)C)C[C@H]1[C@H](c2ccccc2)[C@@H](CO)N1C(=O)C1CCC1 | > 10 µM (inactive) |
| C[C@H]1CN([C@@H](C)CO)C(=O)CCCn2nncc2CO[C@H]1CN(C)C(=O)c1ccc2ccn(C)c2c1 | > 10 µM (inactive) |
| O=C(Nc1ccc(F)cc1)N1C[C@@H]2[C@H](c3ccccc31)[C@H](CO)N2C(=O)c1ccncc1 | > 10 µM (inactive) |
| CC(=O)NC[C@@H]1[C@@H](c2ccc(C#Cc3ccccc3F)cc2)[C@@H](CO)N1C(C)=O | > 10 µM (inactive) |
| COc1ccc(C(=O)N2C[C@@H]3[C@H](c4ccccc42)[C@@H](CO)N3Cc2ccccc2Cl)cc1 | > 10 µM (inactive) |
| COCC(=O)N1[C@H](CNC(=O)c2ccccn2)[C@@H](c2ccccc2)[C@@H]1CO | > 10 µM (inactive) |
| Cc1ccc(S(=O)(=O)N2C[C@@H]3[C@H](c4ccccc42)[C@H](CO)N3Cc2cccnc2)cc1 | > 10 µM (inactive) |
| C[C@H](CO)N1C[C@H](C)[C@H](CN(C)C(=O)NC2CCCC2)OCc2cnnn2CCCC1=O | > 10 µM (inactive) |
| CNC[C@H]1OCc2cn(nn2)CCCC(=O)N([C@@H](C)CO)C[C@H]1C | > 10 µM (inactive) |
| C[C@H]1CN([C@@H](C)CO)C(=O)CCCn2cc(nn2)CO[C@@H]1CN(C)S(=O)(=O)c1ccc(-n2cccn2)cc1 | > 10 µM (inactive) |
| CCN(C[C@H]1[C@H](c2ccc(-c3cccnc3)cc2)[C@@H](CO)N1C(C)=O)C(C)=O | > 10 µM (inactive) |
| C/C=C/c1ccc([C@@H]2[C@@H](CO)N(C(C)=O)[C@H]2CN(CC)C(=O)CN(C)C)cc1 | > 10 µM (inactive) |
| CC(=O)N1[C@H](CO)[C@H](c2ccccc2)[C@H]1CN(CC(C)C)C(=O)c1ccccn1 | > 10 µM (inactive) |
| OC[C@H]1[C@@H]2c3ccccc3NC[C@@H]2N1CC1CCOCC1 | > 10 µM (inactive) |
| C[C@H]1CN([C@@H](C)CO)C(=O)CCCn2nncc2CO[C@@H]1CN(C)C(=O)Nc1ccnc(N2CCOCC2)c1 | > 10 µM (inactive) |

| Compound | AC50 |
| --- | --- |
| C/C=C/c1ccc([C@@H]2[C@@H](CO)N(C(C)=O)[C@@H]2CN(CC)C(=O)CN(C)C)cc1 | > 10 µM (inactive) |
| CCNC[C@@H]1[C@@H](c2ccccc2)[C@@H](CO)N1C(=O)Cc1ccccn1 | > 10 µM (inactive) |
| Cc1cccc(S(=O)(=O)N2C[C@H]3[C@@H](c4ccccc42)[C@H](CO)N3CC2CCCC2)c1 | > 10 µM (inactive) |
| C[C@@H]1CN([C@H](C)CO)C(=O)CCCn2nncc2CO[C@@H]1CN(C)Cc1ccc2cccnc2c1 | > 10 µM (inactive) |
| C[C@H](CO)N1C[C@H](C)[C@@H](CN(C)S(=O)(=O)c2ccc(Oc3ccccc3)nc2)OCc2cnnn2CCCC1=O | > 10 µM (inactive) |
| C[C@H]1CN([C@@H](C)CO)C(=O)CCCn2nncc2CO[C@@H]1CN(C)C(=O)c1cc(-c2ccccc2)on1 | > 10 µM (inactive) |
| C[C@H](CO)N1C[C@H](C)[C@H](CN(C)S(=O)(=O)c2ccc(Oc3ccccc3)nc2)OCc2cnnn2CCCC1=O | > 10 µM (inactive) |
| C[C@@H]1CN([C@H](C)CO)C(=O)CCCn2cc(nn2)CO[C@H]1CN(C)Cc1ccccc1 | > 10 µM (inactive) |
| C[C@@H]1CN([C@@H](C)CO)C(=O)CCCn2nncc2CO[C@@H]1CN(C)C(=O)c1cc(-c2ccccc2)on1 | > 10 µM (inactive) |
| CN1C[C@H]2[C@@H](c3ccccc31)[C@@H](CO)N2Cc1ccccc1Cl | > 10 µM (inactive) |
| O=S(=O)(NC[C@H]1[C@@H](c2ccccc2)[C@H](CO)N1CC1CC1)c1ccccc1 | > 10 µM (inactive) |
| CCCC(=O)N1C[C@H]2[C@@H](c3ccccc31)[C@@H](CO)N2C(=O)Nc1ccc(F)cc1 | > 10 µM (inactive) |
| O=C(Nc1ccc(F)cc1)N1C[C@@H]2[C@H](c3ccccc31)[C@H](CO)N2Cc1ccccc1Cl | > 10 µM (inactive) |
| O=C(Nc1ccccc1F)N1C[C@H]2[C@@H](c3ccccc31)[C@@H](CO)N2C(=O)Cc1cccnc1 | > 10 µM (inactive) |
| C[C@@H]1CN([C@@H](C)CO)C(=O)CCCn2nncc2CO[C@@H]1CN(C)C(=O)Nc1ccc2c(c1)OCCO2 | > 10 µM (inactive) |
| C/C=C/c1ccc([C@H]2[C@@H](CN(C)C(C)=O)N(C(=O)NC(C)C)[C@H]2CO)cc1 | > 10 µM (inactive) |
| COc1ccccc1NC(=O)N1C[C@H]2[C@@H](c3ccccc31)[C@H](CO)N2Cc1ccc2c(c1)OCO2 | > 10 µM (inactive) |
| O=S(=O)(c1ccccc1)N1[C@H](CO)[C@@H]2c3ccccc3NC[C@@H]21 | > 10 µM (inactive) |
| CC(=O)NC[C@H]1[C@H](c2ccc(C3=CCCC3)cc2)[C@@H](CO)N1Cc1cccnc1 | > 10 µM (inactive) |
| CCCC(=O)N1C[C@@H]2[C@H](c3ccccc31)[C@H](CO)N2Cc1cocn1 | > 10 µM (inactive) |
| O=C(c1cnccn1)N1C[C@H]2[C@@H](c3ccccc31)[C@@H](CO)N2CC1CCCC1 | > 10 µM (inactive) |
| C[C@H]1CN([C@@H](C)CO)C(=O)CCCn2cc(nn2)CO[C@H]1CN(C)C(=O)Nc1cccc(C(F)(F)F)c1 | > 10 µM (inactive) |
| C[C@@H]1CN([C@H](C)CO)C(=O)CCCn2nncc2CO[C@H]1CN(C)Cc1ccc2c(c1)OCCN2C | > 10 µM (inactive) |
| CCN(C[C@@H]1N[C@H](CO)[C@H]1c1ccccc1)C(=O)c1ccncc1 | > 10 µM (inactive) |
| O=C(c1ccccn1)N1C[C@@H]2[C@H](c3ccccc31)[C@H](CO)N2C(=O)Nc1ccccc1Cl | > 10 µM (inactive) |
